Assays:
[1] = system: Coniophora puteana BAM Ebw. 15; test: Agar block method (Bravery test, similar to EN 113) on Southern Yellow Pine wood samples; type: cell-based; settings: C. puteana, 6 weeks, weight loss <3% = sufficient protection
Description: (§1) The activity threshold of the composition according to the invention from example 1 against wood-destroying Basidiomycetes was determined by the agar block method on wood samples from Pinus spp. (Southern Yellow Pine) of the dimensions 40×15×4 mm^3. The test method with wood samples reduced in size, known as bravery test, is very similar to EN 113 and serves to determine the prophylactic action of wood preservatives against wood-destroying fungi (see A. F. Bravery, Intern. Res. Group Wood Pres., Doc. No. IRG/WP/2113, 5S., Stockholm 1978). For comparison, a solution of epoxiconazole in acetone was tested under the same conditions.
(§2) The wood samples impregnated with the composition according to the invention were, with and without leaching stress, tested according to EN 84. The test was carried out using four different active compound concentrations and in each case 5 parallel samples per active compound concentration and test fungus. The test fungi used were Coniophora puteana BAM Ebw. 15, Poria placenta FPRL 280 and Coriolus versicolor CTB 863A. The destruction of the wood caused by the fungal attack was evaluated using the weight loss of the sample woods, which was determined after 6 weeks. If the weight loss is less than 3% by weight, based on the initial dry weight of the test sample, the protection of the wood achieved by the preservative at a certain active compound concentration is considered to be sufficient. The activity concentration threshold is stated in two concentrations.
(§3) The values determined for a solution of the active compound in acetone are shown for comparison.

[2] = system: Poria placenta FPRL 280; test: as above; type: cell-based; settings: P. placenta, 6 weeks, weight loss <3% = sufficient protection
Description: as §1, §2, §3

[3] = system: wood-destroying soil termites (Reticulitermes santonensis); test: Forced termite test on treated Southern Yellow Pine wood samples (AWPA E1-97) after leaching stress (DIN EN 84); type: in vivo; settings: after leaching (DIN EN 84); 4-week test; lower value = wood no longer sufficiently protected, higher value = minimum concentration for complete protection (score 10)
Description: Using water, the aqueous active compound composition according to the invention from example 5 was diluted to three different active compound concentrations. For comparison, α-cypermethrin was dissolved in acetone, and the solution was diluted to the corresponding active compound concentrations using further acetone.
To determine the activity thresholds of the composition according to the invention against wood-destroying soil termites (Reticulitermes santonensis), wood samples from Pinus spp. of the dimensions 25×25×6 mm^3 (Southern Yellow Pine), which met the American test standard AWPA E1-97 (see “Standard method for laboratory evaluation to determine resistance to subterranean termites”, American Wood-Preservers' Association, 2001) were tested in a forced test after leaching stress according to DIN EN 84: 1997-01 (see “accelerated aging of treated wood prior to biological testings”, European Committee for Standardization).
The destruction of the wood caused by the termite attack was, after a 4-week test period, evaluated by visual scoring of the sample woods in accordance with AWPA E1-97. In addition, the mortality rate among the termites was estimated. […]
For the aqueous active compound composition according to the invention, the threshold for α-cypermethrin after leaching was determined to be 9-21 g/m^3. […]

| Structure (SMILES) | Activity thresholds, with leaching ([1]; with leaching (EN 84)) | Activity thresholds, without leaching ([1]; without leaching) [g/m^3] | Activity thresholds, with leaching ([2]; with leaching (EN 84)) | Activity thresholds, without leaching ([2]; without leaching) [g/m^3] | threshold for α-cypermethrin after leaching [3] |
| --- | --- | --- | --- | --- | --- |
| Fc1ccc([C@]2(Cn3cncn3)O[C@H]2c2ccccc2Cl)cc1 (racemic) [Solution of epoxiconazole, epoxiconazole] | 110-160 g/m^3 | <190 | 110-180 g/m^3 | <190 | – |
| CC1(C)C(C=C(Cl)Cl)C1C(=O)OC(C#N)c1cccc(Oc2ccccc2)c1 (stereo not drawn) [α-cypermethrin] | – | – | – | – | above 21 g/m^3 |

Reference: patent US8974806B2, “Method for producing aqueous active substance compositions of active substances that are hardly soluble in water” (priority 2004, dated 2015)
